Reference: patent US20220330549A1, “USE OF N-BENZYLBENZAMIDE-BASED COMPOUND AS HERBICIDE” (Northwest A&F University, priority 2020, published 2022)

Legend:
Assay type in all cases: in vivo
Solanum nigrum = test: Field test for weed control in a corn field; conditions: 150 g a.i./ha, 30 days after treatment
How it was run: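 Post-emergence weed control was tested in a corn field following GB/T 17980.42-2000. Compounds were made into 10% emulsifiable concentrates, diluted in water and sprayed at 150 g(a.i.)/ha when corn had 2 to 5 leaves after sowing, in 20 m^2 plots with 4 replicates. Effects on Solanum nigrum were graded on a 1-9 scale relative to the blank control area.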

Barnyard grass [1] = test: Field test for weed control in a corn field; conditions: 150 g a.i./ha, 30 days after treatment
How it was run: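 Corn-field efficacy trial following GB/T 17980.42-2000. Test compounds were formulated as 10% emulsifiable concentrates, diluted in water and sprayed post-emergence at 150 g(a.i.)/ha when corn had 2 to 5 leaves. Each treatment was replicated 4 times on 20 m^2 plots. Barnyard grass control was rated on a 1-9 damage scale.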

Chenopodium album = test: Field test for weed control in a corn field; conditions: 150 g a.i./ha, after treatment
How it was run: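 A corn-field efficacy trial following GB/T 17980.42-2000 tested post-emergence control of Chenopodium album. Test compounds formulated as 10% emulsifiable concentrates were diluted in water and sprayed at 150 g(a.i.)/ha when the corn had 2 leaves to 5 leaves, on 20 m^2 plots with 4 replicates. Herbicidal activity was rated on a 1-9 scale by damage symptoms and severity.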

Amaranthus retroflexus [2] = test: Field test for weed control in a corn field; conditions: 150 g a.i./ha, 30 days after treatment
How it was run: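 Field efficacy trial in a corn field following GB/T 17980.42-2000. Test compounds were formulated as 10% emulsifiable concentrates, diluted in water and sprayed post-emergence when corn had 2 to 5 leaves. Each treatment covered 20 m^2 with 4 replicates. A 25% mesotrione oil dispersion served as control. Damage to Amaranthus retroflexus was rated on a 1-9 scale against untreated blank plots.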

Convolvulus arvensis = test: Field test for weed control in a corn field; conditions: 150 g a.i./ha, after treatment
How it was run: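 Field trial of weed control against Convolvulus arvensis in corn, run following GB/T 17980.42-2000. Test agents were formulated as 10% emulsifiable concentrates and sprayed in water at 150 g(a.i.)/ha when corn plants had 2 to 5 leaves. Each treatment was replicated 4 times on 20 m^2 plots, and 25% mesotrione oil dispersion served as the control agent.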

Portulaca oleracea = test: Field test for weed control in a corn field; conditions: 150 g a.i./ha, after treatment
How it was run: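 Field efficacy trial in corn following GB/T 17980.42-2000. Test compounds were prepared as 10% emulsifiable concentrates, diluted in water, and sprayed at 150 g(a.i.)/ha when corn had 2 to 5 leaves after sowing. Plots were 20 m^2 with 4 replicates per treatment. Herbicidal activity was scored on a 1-9 scale from weed damage symptoms and severity.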

green bristlegrass [3] = test: Field test for weed control in a corn field; conditions: 150 g a.i./ha, after treatment
How it was run: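 Post-emergence weed control was tested in a corn field following GB/T 17980.42-2000. When the corn had 2 leaves to 5 leaves after sowing, 10% emulsifiable concentrates diluted in water were sprayed at 150 g(a.i.)/ha on 20 m^2 plots, four replicates per treatment. Effects on green bristlegrass were scored on a 1-9 damage scale relative to the blank control area.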

goosegrass = test: Field test for weed control in a corn field; conditions: 150 g a.i./ha, after treatment
How it was run: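 Weed control efficacy against goosegrass was tested in a corn field following GB/T 17980.42-2000. Compounds formulated as 10% emulsifiable concentrates were diluted in water and sprayed post-emergence at 150 g(a.i.)/ha when corn had 2 to 5 leaves, with 4 replicates of 20 m^2 plots. Herbicidal activity was rated on a 1-9 scale by damage symptoms and severity.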

nutgrass flatsedge = test: Field test for weed control in a corn field; conditions: 150 g a.i./ha, after treatment
How it was run: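 A corn field efficacy trial following GB/T 17980.42-2000 assessed post-emergence control of nutgrass flatsedge. Test compounds were formulated as 10% emulsifiable concentrates, diluted in water, and sprayed at 150 g(a.i.)/ha when the corn had 2 to 5 leaves. Each treatment had 4 replicates on 20 m^2 plots. Herbicidal activity was graded on a 1-9 scale by damage symptoms and severity.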

Acalypha australis = test: Field test for weed control in a corn field; conditions: 150 g a.i./ha, after treatment
How it was run: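 Post-emergence field trial in a corn field following GB/T 17980.42-2000. Test compounds were formulated as 10% emulsifiable concentrates, diluted in water, and sprayed at 150 g(a.i.)/ha when corn had 2 to 5 leaves, with 4 replicates on 20 m^2 plots. Mesotrione 25% oil dispersion served as the control agent. Weed control was scored on a 1-9 scale.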

Digitaria sanguinalis [4] = test: Field test for weed control in a corn field; conditions: 150 g a.i./ha, after treatment
How it was run: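 Field trial in a corn field following GB/T 17980.42-2000. Test compounds were formulated as 10% emulsifiable concentrates, diluted in water and sprayed post-emergence at 150 g(a.i.)/ha when corn had 2 to 5 leaves, with 4 replicates on 20 m^2 plots. Control of Digitaria sanguinalis was scored on a 1-9 scale based on weed damage relative to the untreated blank area.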

Barnyard grass [5] = test: Herbicidal activity test for indoor pre-emergence soil treatment; design: key: level 1-9; higher = more weed remaining vs blank control; conditions: 150 g a.i./ha, visual inspection 21 days after treatment
How it was run: (§1)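 Pre-emergence test following NY/T 1155.3-2006: weed seeds were sown in moistened neutral sandy loam (≤2% organic matter) and covered with 0.5–2.0 cm of soil. After 24 h, the soil was sprayed with a 10% EC diluted in water at 150 g(a.i.)/ha. Damage was scored visually on a 1–9 scale at 21 days.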

green bristlegrass [6] = test: as above; design: key: level 1-9; higher = more weed remaining vs blank control; conditions: 150 g a.i./ha, visual inspection 21 days after treatment
How it was run: as §1

Piemarker [7] = test: as above; design: key: level 1-9; higher = more weed remaining vs blank control; conditions: 150 g a.i./ha, visual inspection 21 days after treatment
How it was run: as §1

Amaranthus retroflexus [8] = test: as above; design: key: 1-9 levels; higher = more weed remaining vs blank control; conditions: 150 g a.i./ha, visual inspection 21 days after treatment
How it was run: as §1

Digitaria sanguinalis [9] = test: as above; design: key: 1-9 levels; higher = more weed remaining vs blank control; conditions: 150 g a.i./ha, visual inspection 21 days after treatment
How it was run: as §1

Gramineae = test: Post-emergence herbicidal activity test in a paddy field; design: key: level scale; higher level = more weed left vs blank control; conditions: 150 g a.i./ha (penoxsulam control 250 g(a.i.)/h)
How it was run: (§2)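 Efficacy was visually estimated 15 and 30 days after spraying, grading weed coverage relative to an untreated neighbouring plot (level 2 = 0 to 2.5%, level 9 = 67.6 to 100%). Treatments were 150 g(a.i.)/ha from 10% emulsifiable concentrates applied at the 4-5 leaf rice stage, four repeats of 50 m^2 each.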

Broadleaf weed = test: as above; design: key: level scale; higher level = more weed left vs blank control; conditions: 150 g a.i./ha (penoxsulam control 250 g(a.i.)/h)
How it was run: as §2

Cyperaceae = test: as above; design: key: level scale; higher level = more weed left vs blank control; conditions: 150 g a.i./ha (penoxsulam control 250 g(a.i.)/h)
How it was run: as §2

Humulus scandens [10] = test: Herbicidal activity test for indoor pre-emergence soil treatment; conditions: 150 g a.i./ha, visual inspection 21 days after treatment
How it was run: as §1

Barnyard grass [11] = test: Herbicidal activity test for indoor post-emergence spraying on stems and leaves; design: key: grade level by weed remaining vs blank control, e.g. 5 = 10.1-15%; conditions: 150 g a.i./ha, visual inspection 21 days after treatment
How it was run: (§3)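 Post-emergence stem and leaf spray in an indoor test following NY/T 1155.4-2006, with weeds sown and grown in a greenhouse. Effect scored visually 21 days after treatment as graded levels, each level set by the percentage of weed remaining relative to the blank control area.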

Amaranthus retroflexus [12] = test: as above; design: key: grade level by weed remaining vs blank control, e.g. 5 = 10.1-15%; conditions: 150 g a.i./ha, visual inspection 21 days after treatment
How it was run: as §3

green bristlegrass [13] = test: as above; design: key: grade level by weed remaining vs blank control, e.g. 5 = 10.1-15%; conditions: 150 g a.i./ha, visual inspection 21 days after treatment
How it was run: as §3

Piemarker [14] = test: as above; design: key: grade level by weed remaining vs blank control, e.g. 5 = 10.1-15%; conditions: 150 g a.i./ha, visual inspection 21 days after treatment
How it was run: as §3

Digitaria sanguinalis [15] = test: as above; design: key: grade level by weed remaining vs blank control, e.g. 5 = 10.1-15%; conditions: 150 g a.i./ha, visual inspection 21 days after treatment
How it was run: as §3

Humulus scandens [16] = test: as above; design: key: grade level by weed remaining vs blank control, e.g. 5 = 10.1-15%; conditions: 150 g a.i./ha, visual inspection 21 days after treatment
How it was run: as §3

| Compound | Post-emergence weed control effect, Solanum nigrum (Solanum nigrum) | Post-emergence weed control effect, Barnyard grass (Barnyard grass [1]) | Post-emergence weed control effect, Chenopodium album (Chenopodium album) | Post-emergence weed control effect, Amaranthus retroflexus (Amaranthus retroflexus [2]) | Post-emergence weed control effect, Convolvulus arvensis (Convolvulus arvensis) | Post-emergence weed control effect, Portulaca oleracea (Portulaca oleracea) | Post-emergence weed control effect, Green bristlegrass (green bristlegrass [3]) | Post-emergence weed control effect, Goose grass (goosegrass) | Post-emergence weed control effect, Nutgrass flatsedge (nutgrass flatsedge) | Post-emergence weed control effect, Acalypha australis (Acalypha australis) | Post-emergence weed control effect, Digitaria sanguinalis (Digitaria sanguinalis [4]) | Herbicidal Activity Barnyard grass (Barnyard grass [5]) | Herbicidal Activity Green bristlegrass (green bristlegrass [6]) | Herbicidal Activity Piemarker (Piemarker [7]) | Herbicidal Activity Amaranthus retroflexus (Amaranthus retroflexus [8]) | Herbicidal Activity Digitaria sanguinalis (Digitaria sanguinalis [9]) | Herbicidal activity 15 days after treatment Gramineae (Gramineae) | Herbicidal activity 30 days after treatment Gramineae (Gramineae) | Herbicidal activity 15 days after treatment Broadleaf weed (Broadleaf weed) | Herbicidal activity 30 days after treatment Broadleaf weed (Broadleaf weed) | other results |
| --- | --- | --- | --- | --- | --- | --- | --- | --- | --- | --- | --- | --- | --- | --- | --- | --- | --- | --- | --- | --- | --- |
| COc1cccc(CNC(=O)c2cccnc2OC)c1 [Compound A87] | 2 (equivalent to 0 to 2.5% of the weed in the blank control area) | 1 | 1 | 1 | 1 | 1 | 1 | 2 (equivalent to 0 to 2.5% of the weed in the blank control area) | 2 (equivalent to 0 to 2.5% of the weed in the blank control area) | 2 (equivalent to 0 to 2.5% of the weed in the blank control area) | 2 (equivalent to 0 to 2.5% of the weed in the blank control area) | 2 (equivalent to 0 to 2.5% of the weed in the blank control area) | 1 | 2 (equivalent to 0 to 2.5% of the weed in the blank control area) | 2 (equivalent to 0 to 2.5% of the weed in the blank control area) | 2 (equivalent to 0 to 2.5% of the weed in the blank control area) | 2 (equivalent to 0 to 2.5% of the weed in the blank control area) | 1 | 1 | 1 | Herbicidal activity 15 days after treatment Cyperaceae (Cyperaceae): 1; Herbicidal activity 30 days after treatment Cyperaceae (Cyperaceae): 1; Herbicidal Activity Humulus scandens (Humulus scandens [10]): 3 (equivalent to 2.6 to 5% of the weed in the blank control area); Herbicidal Activity Barnyard grass (Barnyard grass [11]): 2 (equivalent to 0 to 2.5% of the weed in the blank control area); Herbicidal Activity Amaranthus retroflexus (Amaranthus retroflexus [12]): 1; Herbicidal Activity Green bristlegrass (green bristlegrass [13]): 1; Herbicidal Activity Piemarker (Piemarker [14]): 1; Herbicidal Activity Digitaria sanguinalis (Digitaria sanguinalis [15]): 1; Herbicidal Activity Humulus scandens (Humulus scandens [16]): 1 |
| COc1ncccc1C(=O)NCc1cc(F)cc(Cl)c1 [Compound A89] | 2 (equivalent to 0 to 2.5% of the weed in the blank control area) | 1 | 1 | 1 | 1 | 1 | 1 | 2 (equivalent to 0 to 2.5% of the weed in the blank control area) | 2 (equivalent to 0 to 2.5% of the weed in the blank control area) | 1 | 2 (equivalent to 0 to 2.5% of the weed in the blank control area) | 1 | 1 | 1 | 1 | 2 (equivalent to 0 to 2.5% of the weed in the blank control area) | 1 | 1 | 1 | 1 | Herbicidal activity 15 days after treatment Cyperaceae (Cyperaceae): 1; Herbicidal activity 30 days after treatment Cyperaceae (Cyperaceae): 1; Herbicidal Activity Humulus scandens (Humulus scandens [10]): 2 (equivalent to 0 to 2.5% of the weed in the blank control area); Herbicidal Activity Barnyard grass (Barnyard grass [11]): 1; Herbicidal Activity Amaranthus retroflexus (Amaranthus retroflexus [12]): 1; Herbicidal Activity Green bristlegrass (green bristlegrass [13]): 1; Herbicidal Activity Piemarker (Piemarker [14]): 1; Herbicidal Activity Digitaria sanguinalis (Digitaria sanguinalis [15]): 1; Herbicidal Activity Humulus scandens (Humulus scandens [16]): 1 |
